Data: paper PMC12814185, “Receptor-Mediated Shuttling of a D‑Amino Acid Peptide Achieves High Nanomolar Cytosolic Concentrations” (Journal of the American Chemical Society, 2025)
Where a SMILES comes first, the peptide text is derived from it. Bridges are numbered along the chain shown (N, C = ends). Roman numbers before positions name the chains, in order. Triazole bridges read from a SMILES are 1,4-linked. Where no end group is shown, it is not given here. Side-chain parts run from the residue outwards. [ ]: non-standard residue; d: D form. The star is where a group is joined. X2 = CN1C(=C/C=C/C=C/C2=[N+](CCCCCC(=O)*)c3ccc(S(=O)(=O)[O-])cc3C2(C)C)C(C)(C)c2cc(S(=O)(=O)O)ccc21; X1 = CN1C(=CC=CC=CC2=[N+](CCCCCC(=O)*)c3ccc(S(=O)(=O)[O-])cc3C2(C)C)C(C)(C)c2cc(S(=O)(=O)O)ccc21; Lys(N3) = [N-]=[N+]=NCCCC[C@H](N)C(=O)O; Cit = NC(=O)NCCC[C@H](N)C(=O)O; d(hCys) = N[C@H](CCS)C(=O)O; PEG3 = NCCOCCOCCOCCC(=O)O; Pra = C#CC[C@H](N)C(=O)O

How the values were obtained:
HEK293_CMKLR1-eYFP cells [1] = test: Resazurin based cell viability assay, peptides; details: 72 h incubation
Procedure: page 3: […] 15% FCS. Calcium flux assay Calcium flux assay was performed with cells expressing CMKLR1 and the chimeric G protein […]. The stably transfected COS-7_CMKLR1-eYFP_ […] were seeded at 25,000 cells per well into poly-ᴅ-lysine-coated 96-well plates (black μCLEAR, Greiner). The next day, cells were incubated with […] (Sigma), 20 mM 4-(2-hydroxyethyl)-1-piperazineethanesulfonic acid (HEPES, Sigma) in Hanks' Balanced […] This solution was replaced by assay buffer, and basal Ca2+ signal (λex = 485 nm, λem = 525 nm) was measured for 20 s with a Flexstation 3 plate reader (Molecular Devices). Peptide dilutions were added, and the Ca2+ response was measured for 40 s. The maximum signal over baseline was calculated and normalized to peptide 1 (N3-cC9). Non-linear regression was performed using Prism 10 (GraphPad). Experiments were performed in technical duplicates and at least twice. Cell viability assay HEK293 and HEK293_CMKLR1-eYFP cells were seeded at 15,000 cells per well into poly-ᴅ-lysine coated 96-well plates (black μCLEAR, Greiner). […] Cells were then washed and a resazurin-based cell viability assay was performed. […] (1:1) + 15% FBS without phenol red was added to the cells. […] using the fluorescence of resorufin (λex = 550 nm, λem = 595 nm). Data was normalized to cells incubated without peptide (100%) and cells treated with ethanol for 3 min before resazurin addition (0%). Experiments were performed in technical triplicates and at least twice. Fluorescence microscopy Peptide internalization was evaluated by fluorescence microscopy. […] the cells and incubated for 6 h. […] All shown microscopy images are representative of at least two independent experiments. […] Resazurin based cell viability assay of HEK293 and HEK293_CMKLR1-eYFP cells after 72 h incubation with the p53/MDM2 inhibitor Nutlin-3a. […] 100 50 2Cy 3Cy 4Cy 0 -8 -7 -6 -5 -4 […]], log Figure S4. Resazurin based cell viability assay of HEK293_CMKLR1-eYFP cells after 72 h incubation with the PMIγ peptides discussed in this work. Mean ± SEM from two independent experiments performed in triplicates. 15 […]

HEK293_CMKLR1-eYFP cells [2] = test: Intracellular peptide stability (cleavage products in cell lysate, RP-HPLC, MALDI-ToF-MS); details: 1 μM peptide; for intact peptide in cell lysate: 15 min to 24 h, RP-HPLC λex 640 nm λem 670 nm; for cleavage site identified by MALDI-ToF-MS: PMIγ sequence remained intact
Procedure: 3 Quantification of Cy5-labeled peptides in the cytosol. (A) RP-HPLC (λex = 640 nm, λem = 670 nm) of cleavage products of Cy5-labeled peptides in the lysate of HEK293_CMKLR1-eYFP cells after incubation with 1 μM peptide for different durations. […] (B) Representative fluorescence correlation spectroscopy (FCS) autocorrelation curves of Cy5-labeled peptides measured in the cytosol of HEK293_CMKLR1-eYFP cells after 72 h of incubation. Measured curves were fitted with a model for hindered 3D diffusion and diffusion time t D and anomalous coefficient α were calculated from the fit. Autocorrelation data represent mean ± SD of up to 10 consecutive 5 s measurements in a single cell. (C) Intracellular concentrations of Cy5-labeled peptides after 72 h incubation calculated from the fitted autocorrelation curves obtained in HEK293_CMKLR1-eYFP, HMEC-1, and THP-1 cells. Each data point corresponds to FCS measurements from the cytosol of a single cell. Median with the interquartile range is shown. Data from three independent experiments. Statistical comparison by log-normal unpaired t test. ***p ≤ 0.001, **p ≤ 0.01, *p ≤ 0.05, ns – not significant. […] (D) Calculated diffusion coefficients from the fitted autocorrelation curves. Median with the interquartile range is shown.
Intracellular peptide stability
2 mL of 1 µM Cy5-labeled peptide in DMEM/Ham's F12 (1:1) + 15% FBS without phenol red were incubated on stably transfected HEK293_CMKLR1-eYFP cells in T25 cell culture flasks for 15 min to 24 h. The cells were washed with cold acidic wash (50 mM glycine, 100 mM sodium chloride, pH 3) and phosphate-buffered saline (PBS, Biowest) and harvested into 300 µl cold PBS with HaltTM Protease inhibitor cocktail (Thermo).
Suspended cells were homogenized with zirconia beads on a FastPrep-24 5G system (MP Biomedical) for 30 s and cellular proteins were precipitated from 600 µL ACN/ethanol (1:1) + 0.1% TFA at -20 °C for 2 h.
Cell lysates were then filtered through Costar Spin-X tubes, separated by RP-HPLC and isolated peaks were identified by MALDI-ToF MS (Ultraflextreme, Bruker). Experiments were performed at least twice and representative RP-HPLC chromatograms are shown.

[3] = FCS diffusion coefficient in solution; assay type: physicochemical; details: 10 nM in Fluorobrite DMEM, 22 °C, mean and SD of three independent measurements
Description: Fluorescence correlation spectroscopy (FCS) […] Nuclei were […] HEPES (pH 7.4). […] Prior to measurements, the correction collar of the objective […] Repeats […] is the autocorrelation at τ, N the average number of molecules in the focal volume, τD the average diffusion time through the focal volume, α the anomalous coefficient describing the hindered diffusion, S the shape factor of the focal volume, τE the time domain of the additional exponential term and E the fraction of molecules in the exponential term. […] [nM] [nM] […] 100 23.5 ± 40.2 11.9 *÷ 3.0 10.2 (5.2-32.1) 1000 138 ± 122 87.7 *÷ 3.0 98.8 (37.8-199) 10000 308 ± 257 239 *÷ 2.0 228 (157-435) […] Table S8. Predicted and measured diffusion coefficients D in solution. Measurements were performed with 10 nM of fluorescent compounds in Fluorobrite […] Data from three independent measurements. Mean and standard deviation are shown. name molecular predicted D measured […]] sulfo-Cy5 778.0 - 341.6 (reference) […] Intracellular cleavage product 2401.8 244.7 - 3Cy […]9 4475.1 175.0 138.5 ± 5.1 Intracellular cleavage product 2733.2 234.4 - 18

| Molecule | cytotoxicity (HEK293_CMKLR1-eYFP cells [1]) | intact peptide in cell lysate (HEK293_CMKLR1-eYFP cells [2]) | cleavage site identified by MALDI-ToF-MS (HEK293_CMKLR1-eYFP cells [2]; lysate) | measured D in solution [3] | incubation time after which a singular cleavage product peak was observed (HEK293_CMKLR1-eYFP cells [2]; RP-HPLC of lysate) | fate of the hsLMWP sequence (HEK293_CMKLR1-eYFP cells [2]; lysate, MALDI-ToF-MS) |
| --- | --- | --- | --- | --- | --- | --- |
| CC(=O)N[C@@H](CCCCn1cc(C[C@H](NC(=O)CCOCCOCCOCCNC(=O)[C@H](CCCNC(N)=O)NC(=O)[C@@H](NC(=O)[C@H](CCC(=O)O)NC(=O)CNC(=O)CNC(=O)[C@@H](CCCNC(=N)N)NC(=O)[C@@H](CC(C)C)NC(=O)[C@@H](CC(C)C)NC(=O)[C@@H](C)NC(=O)[C@@H](CCC(=O)O)NC(=O)[C@@H](Cc2ccccc2)NC(=O)[C@@H](C)NC(=O)[C@@H](CC(C)C)NC(=O)[C@H]2CCCN2C(=O)[C@@H](Cc2c[nH]c3ccccc23)NC(=O)[C@@H](Cc2c[nH]c3ccccc23)NC(=O)[C@@H](CC(=O)O)NC(=O)CCOCCOCCOCCNC(=O)CCCCC[N+]2=C(/C=C/C=C/C=C3N(C)c4ccc(S(=O)(=O)O)cc4C3(C)C)C(C)(C)c3cc(S(=O)(=O)[O-])ccc32)C(C)C)C(N)=O)nn1)C(=O)N[C@@H](Cc1ccc(O)cc1)C(=O)N[C@@H](Cc1ccccc1)C(=O)N1CCC[C@H]1C(=O)N[C@@H]1CCSSC[C@@H](C(=O)O)NC(=O)[C@H](Cc2ccccc2)NC(=O)[C@H](C)NC(=O)[C@H](Cc2ccccc2)NC(=O)[C@H](CCC(N)=O)NC1=O [2Cy] (I: {X2-PEG3}-[dD][dW][dW][dP][dL][dA][dF][dE][dA][dL][dL][dR]GGEV[Cit][PEG3][Pra]-NH2 / II: Ac-[Lys(N3)]YFP[d(hCys)]QFAFC-OH; triazole I:19-II:1; disulfide II:5-II:10) | no signs of cytotoxicity | almost no intact peptide was detected | valine-citrulline linker was quickly cleaved | 154.2 ± 4.3 µm2/s | – | – |
| I: GSVSHHHHHHGGHHHH[PEG3][dK]([PEG3-X1])[dD][dW][dW][dP][dL][dA][dF][dE][dA][dL][dL][dR]GEV[Cit][PEG3][Pra]-NH2 / II: Ac-[Lys(N3)]YFP[d(hCys)]QFAFC-OH (triazole I:36-II:1; disulfide II:5-II:10) [3Cy] | tolerated slightly worse at concentrations above 1 μM | almost no intact peptide was detected | valine-citrulline linker was quickly cleaved | 138.5 ± 5.1 µm2/s | 1 h | completely removed |
